The text below walks through data of paper PMC10660337, “Mutate and Conjugate: A Method to Enable Rapid In-Cell Target Validation” (ACS Chemical Biology, 2023).

Values joined by “and” are separate entries in the source; they are usually repeats but may differ in a detail not shown here. Equal values may be shown once.

The target in assay [1] is T1, BRD4(1)^L94C (Homo sapiens, UniProt O60885, L94C).
T1 construct: Characterization of His6-BRD4(1)L94C; made in house; host or cells: E. coli BL21 (DE3)
Briefly: Protein LCMS labeling assay 2 (diverse reactive fragment screen). The conditions noted are these: 1 μM protein, 4 °C, 24 h. In kind it is binding. The method, then:
To investigate whether screening of an unbiased set of covalent fragments could identify ligands for BRD4(1)^L94C, we evaluated 250 previously published cysteine-reactive compounds, comprising 138 acrylamide- and 112 chloroacetamide-functionalized reactive fragments with molecular weights ranging from 152 to 300 Da.[44] Due to the higher throughput of this screening assay, the conditions varied compared to “labeling assay 1”. In this case, 1 μM BRD4(1)^L94C was incubated with either a chloroacetamide fragment (50 μM) or an acrylamide fragment (200 μM) at 4 °C for 24 h (referred to as “labeling assay 2”). Samples were then analyzed using protein LCMS, where a positive hit was classified as a single protein labeling event with a mass shift corresponding to the mass of the fragment of ±2 Da and a labeled peak of >20% intensity. Of the 250 diverse reactive compounds screened against BRD4(1)^L94C, only one chloroacetamide and one acrylamide fragment were classified as hits (Figures 5A and S10). […]
Experiments were performed in a protein LCMS assay buffer, with 10 µM protein, and 50 µM of the desired compound with a final DMSO concentration of 0.5% (Table S16). […] Data was analysed and processed using MassLynx. […] Covalent labeling was calculated using intensities of the unlabeled and labeled protein (Equation 1). […]

Assay [2] deals with BRD4(1). Further details: method as in PMID 36378954. Particulars: cited from earlier work.
The target in assay [3] is T1, BRD4(1)^L94C. Briefly: Protein LCMS labeling assay 1. Format: binding. The conditions noted are these: 50 μM compound, 10 µM protein, 37 °C, mean of three ± s.e.m., ND = not detectable. Here is the method: (§1) The resulting library of 22 fragments was screened for BRD4(1)^L94C binding at a concentration of 50 μM using a protein LCMS assay (referred to as “labeling assay 1”). […] To assess the selectivity of the fragments for the labeling of C94, hits were also screened against BRD4(1)^WT under the same conditions. […] The acrylamide-based fragment, 12, labeled 98% of BRD4(1)^L94C after 4 h. While 95% of the protein was labeled once, 3% of the protein was labeled twice (Figure 5D). […] Fragment 14, designed by appending a β-dimethylaminomethyl acrylamide to the structure of 12, led to 74% of singly labeled BRD4(1)^L94C after 4 h with no labeling of BRD4(1)^WT observed (Table 1 and Figure 5E). […] However, only 9.9% of labeled BRD4(1)^L94C was observed, substantially lower than the 56% labeling observed for the corresponding 3-methyl regioisomer 10 (Table 1). […]
(§2) Assays were performed in 1.5 mL Eppendorf tubes at 37 °C and gently shaken, unless otherwise stated.
(§3) Experiments were performed in a protein LCMS assay buffer, with 10 µM protein, and 50 µM of the desired compound with a final DMSO concentration of 0.5% (Table S16). Time points were taken at 0, 1 and 4 h, unless otherwise stated, where a 20 µL sample of the reaction mix was taken, diluted with 100 µL Milli-Q water, and flash frozen. Samples were thawed immediately prior to LCMS analysis on a Waters Xevo G2-S system (Waters) fitted with a ProSwift™ RP-2H PSDVB Reversed Phase HPLC Column (Thermofisher). Data was analysed and processed using MassLynx. The total ion chromatograms (TIC) were extracted (region containing protein) and the summed scans were deconvoluted (using MaxEnt). Covalent labeling was calculated using intensities of the unlabeled and labeled protein (Equation 1). Figures were made using GraphPad Prism 7.0.
(§4) Table S16. Buffer composition for protein LCMS.
(§5) Buffer Reagent Composition Amount per 1 L
(§6) Protein LCMS Assay Buffer HEPES 25 mM 6.0 g
(§7) Protein Labelling = Intensity of Labelled Peak × 100

Assay [4] addresses T2, BRD4(1)^WT (Homo sapiens, UniProt O60885).
T2 construct: Characterization of His6-BRD4(1)WT; made in house; host or cells: E. coli BL21 (DE3)
Description: Fluorescent labeling of purified protein (CuAAC with TAMRA-PEG3-azide, in-gel fluorescence). Format: binding. The conditions noted are these: 50 μM probe, 10 μM protein, 4 h, 37 °C, then CuAAC 1 h. Here is the method:
(§8) When 28, 29, 30, and 42 were incubated with either purified BRD4(1)^L94C or BRD4(1)^WT and subjected to a copper(I)-catalyzed alkyne–azide click reaction (CuAAC) reaction with the fluorescent TAMRA-PEG3-azide dye, all clickable probes labeled the mutant protein and could be visualized using fluorescence imaging of a gel (Figure 6).
Figure 6 Clickable probes 28, 29, 30, and 42 covalently label BRD4(1)^L94C and undergo a subsequent CuAAC reaction with TAMRA-PEG3 azide to fluorescently label the protein, as shown by in-gel fluorescence imaging. Compounds 28, 29, 30, 41, and 42 (50 μM) were incubated with purified BRD4(1)^L94C or BRD4(1)^WT (10 μM) for 4 h at 37 °C, followed by CuAAC reaction with TAMRA-PEG3 azide for 1 h and separation of components by SDS-PAGE. For all compounds other than 30, only labeling of BRD4(1)^L94C was observed.
(§9) 50 mM DMSO stock solutions of the compounds were serially diluted, and dispensed into wells (5 μL).
The protein-peptide mixes (7 μL) for each combination were prepared following the specified final assay concentration (Table S19), and dispensed into wells. […]
Assays were performed in 1.5 mL Eppendorf tubes at room temperature, in the dark, and gently shaken, unless otherwise stated. […] Data was analysed and processed using MassLynx. […]
Gels were imaged for fluorescence using Bio-rad molecular imager and then stained for 15 min with […]

Assay [5] has as its target T1, BRD4(1)^L94C. Described as above. In kind it is binding. Particulars: 50 μM probe, 10 μM protein, 4 h, 37 °C, then CuAAC 1 h. Here is the method:
as §8
Figure 6 Clickable probes 28, 29, 30, and 42 covalently label BRD4(1)^L94C and undergo a subsequent CuAAC reaction with TAMRA-PEG3 azide to fluorescently label the protein, as shown by in-gel fluorescence imaging. Compounds 28, 29, 30, 41, and 42 (50 μM) were incubated with purified BRD4(1)^L94C or BRD4(1)^WT (10 μM) for 4 h at 37 °C, followed by CuAAC reaction with TAMRA-PEG3 azide for 1 h and separation of components by SDS-PAGE. For all compounds other than 30, only labeling of BRD4(1)^L94C was observed. […]
Fluorescent labeling of purified proteins
Assays were performed in 1.5 mL Eppendorf tubes at 37 °C, and gently shaken, unless otherwise stated.
The desired click probe (50 µM) was incubated with protein (10 µM) in protein LCMS buffer for 4 h, after which TAMRA-PEG3-Azide (200 µM), TCEP·HCl (1 mM), TBTA (100 µM), and CuSO4 (1 mM) were added and incubated for a further 1 h at room temperature in the dark. A 25 µL sample of the […]
reaction mix was taken and 8 µL of Lamelli buffer added, and the samples denatured by heating at 95 °C for 10 min. Samples were separated by gel electrophoresis on NuPAGE™ 4–12%, Bis-Tris precast polyacrylamide gels (Thermofisher). Following electrophoresis, gels were stained for 15 min with InstantBlueTM Coomasie® stain (Abcam), destained, and imaged using Bio-rad molecular imager.
Bio-rad Image Lab 6.1 was used to process the data. […]
InstantBlueTM Coomasie® stain (Abcam), destained, and imaged using Bio-rad molecular imager. […]
MEM media. Cells were then harvested and lysed using the previously described protocol above. […]

Assay [6] has as its target T1, BRD4(1)^L94C. Description: AlphaScreen H4_1–20(KAc)4 peptide displacement. Format: binding. The conditions noted are these: mean of three ± s.e.m. The method, then: Under these conditions, all three fragments displaced the peptide from BRD4(1)^L94C, which is consistent with the fragments binding to BRD4(1)^L94C in the expected location (Table 2). […] The longer the mutant protein and electrophile are incubated together, the more time there is for a covalent interaction to occur. […]
(§10) Dose response AlphaScreen™
(§11) The peptide (Table S17) was supplied at >95% purity by GenScript and was stored as 1 mM stocks in […]
(§12) Table S17. Amino acid sequences of peptides used in AlphaScreen™.
(§13) Peptide Amino Acid Sequence […]
(§14) The assay buffer (Table S18, pH 7.6) was filtered through a 0.22 μm filter before use. The buffer is stored at 4 °C as a 5× solution without bovine serum albumin (BSA), which was added on the day of use. The compounds, proteins, and peptides were dispensed into a ProxiPlate-384 Plus (Perkin Elmer) using a Thermo-Fisher electronic multi-channel pipette. For the incubation steps, the plates were sealed, shaken for 10 seconds at 600 rpm on a plate oscillator, and incubated at room temperature in darkness for 30 min or 3.5 h. Ni2+ chelate acceptor and streptavidin donor beads were prepared as a mixture in a 1:300 dilution (0.007 mg/mL final assay concentration, added to the plates and incubated for a further 30 min at room temperature. Plates were read using a SynergyTM 2 MultiMode Microplate Reader using the inbuilt AlphaScreen™ 384 ProxiPlate function: excitation 680 nm, 0.18 sec; emission […]
(§15) Table S18. Composition of assay buffer used in AlphaScreen™ experiments, adjusted to pH 7.6 using an aqueous NaOH […]
(§16) Reagent Composition Mass (mg) for 50 mL
as §9
(§17) The protein-peptide mixes (7 μL) for each combination were prepared following the specified final assay concentration (Table S19), and dispensed into wells. Assay beads (8 μL) were added to attain a final assay volume of 20 μL. Dose response curves were obtained for each compound in triplicate, with serial 1:2 dilutions. Data was processed by fitting a four-parameter equation (Equation 2) to calculate IC50 values using Prism software.
(§18) Table S19. Final assay concentrations of each peptide-protein combination.
(§19) Protein Peptide Protein FAC (nM) Peptide FAC (nM)
(§20) Response = Bottom + Top − Bottom
For orientation: Bead proximity is the source of the signal in Alpha formats.

Assay [7] addresses T2, BRD4(1)^WT. Briefly: Protein LCMS labeling assay 1. The conditions noted are these: 50 μM compound, 10 µM protein, 37 °C, 4 h; mean of three ± s.e.m.; ND = not detectable. In kind it is binding. Here is the method:
Before introducing a Cys mutant into the first bromodomain of BRD4 [BRD4(1)], we wanted to rule out the possibility that the native Cys residues C125 and C136 (Figures 2A and S1), would react with electrophilic fragments. To test this, we incubated two KAc-mimicking methylisoxazole-based reactive fragments (1 and 2, Figure 2C) with purified BRD4(1)^WT.
as §1, §2, §3, §4, §5, §6, §7

Assay [8] concerns the target T2, BRD4(1)^WT. Briefly: AlphaScreen H4_1–20(KAc)4 peptide displacement. In kind it is binding. The conditions noted are these: 4 h incubation at RT; mean of three ± s.e.m. The method, then:
as §10, §11, §12, §13, §14, §15, §16, §9, §17, §18, §19, §20

As to `O=C(CCl)Nc1nc(-c2cccs2)cs1` [Compound 26], the “Labeling of BRD4(1)^L94C, labeling assay 2” value in assay [1] (chloroacetamide fragment 50 μM) was determined as 27%.

Take `Cc1noc(C)c1-c1ccccc1` [4-phenyl-3,5-dimethylisoxazole]: the IC50 in assay [2] was 50 µM.

`C#CCN(C)C/C=C/C(=O)Nc1ccc(N2CCCC2=O)c(OC)c1` [Compound 41]: the “Labeled Protein (%) L94C 4 h” value in assay [3] is 2% and 2.0 ± 0.0%. Also, the “Labeling of purified BRD4(1)^WT, in-gel fluorescence” value in assay [4] is reported as “no labeling”. Moreover, the “Labeling of purified BRD4(1)^L94C, in-gel fluorescence” value in assay [5] is on record as “no labeling”.

Consider `C=CC(=O)Nc1ccc(N2CCCC2=O)c(OC)c1` [Compound 27], for which the IC50 in assay [6] (IC50 (μM) L94C 1 h, 1 h incubation at RT) was 15.5 ± 3.2 µM; in assay [6] (IC50 (μM) L94C 4 h, 4 h incubation at RT), 2.48 µM and 2.5 µM; in assay [8], more than 100 µM. In addition, in assay [1] (acrylamide fragment 200 μM), the “Labeling of BRD4(1)^L94C, labeling assay 2” value was determined as 89%. The “Labeled Protein (%) L94C 1 h” value in assay [3] (1 h) came out at 17 ± 1.0%. Besides, in assay [3], the “Labeled Protein (%) L94C 4 h” value was 61% and 61 ± 2.5%. Besides, in assay [7], the “Labeled Protein (%) WT 4 h” value was “no covalent binding”.

As a reminder, the IC50 is the point on the concentration scale where inhibition reaches its midpoint.
